According to patent US20150038545A1, “HYDROXYPHENYL PYRROLE COMPOUNDS CONTAINING AN HYDROXAMIC ACID AS HDAC INHIBITORS AND MEDICINAL APPLICATIONS THEREOF” (UNIVERSIDAD DEL PAÍS VASCO, priority 2011, published 2015):

Assays:
SW480 = experiment: Cancer cell growth inhibition (CellTiter-Glo), SW480; assay type: cell-based, Human; details: Homo sapiens; Colorectal Cancer, SW480, 72 h treatment
Procedure: (§1) Cell culture-based assays were used to evaluate the ability of compounds of the invention to inhibit cancer cell growth.
(§2) Cells were obtained from the American Type Culture Collection (ATCC). Cells were cultured at 37° C. with 5% CO2 in the appropriate growth medium (see table below), and harvested respectively during the logarithmic growth period and counted with hemocytometer. The cell viability was examined by trypan blue exclusion. Cell concentrations were adjusted to 5.56×10^4 cells/ml with respective medium.
(§3) Stock solutions of test compounds and positive drugs Doxorubicin (Zhejiang, Haizheng, China), Cisplatin (Nanjing Zhiyao, China) and Mitomycin (Zhejiang, Haizheng, China) were prepared in dimethyl sulphoxide (DMSO) or PBS at 20 mM.
(§4) In order to determine the IC50 for each compound, experiments were carried out in 96-well plates and the cell lines seeded at a density of 5,000 cells/well. […] All treatments were performed in triplicate. 10 μl of drug solution was added to each well and incubated for 72 hours. At the end of the incubation, 100 μl of the CellTiter-Glo Reagent were added to each well and the contents were mixed for 2 munites on an orbital shaker to induce cell lysis. The plate was incubated at room temperature for 10 minutes to stabilize luminiscent signal, and luminiscent was recorded. […] In order to calculate IC50 values, dose-responsive curves were fitted using nonlinear regression model with a sigmoidal dose response.

HCT-116 = experiment: Cancer cell growth inhibition (CellTiter-Glo), HCT-116; assay type: cell-based; details: Homo sapiens; Colorectal Cancer, HCT-116, 72 h treatment
Procedure: as §1, §2, §3, §4

Bx-PC-3 = experiment: Cancer cell growth inhibition (CellTiter-Glo), Bx-PC-3; assay type: cell-based, Human; details: Homo sapiens, BXPC-3; Pancreatic Cancer, Bx-PC-3, 72 h treatment
Procedure: as §1, §2, §3, §4

PC-3 = experiment: Cancer cell growth inhibition (CellTiter-Glo), PC-3; assay type: cell-based, Human; details: Homo sapiens; Prostate Cancer, PC-3, 72 h treatment
Procedure: as §1, §2, §3, §4

LoVo = experiment: Cancer cell growth inhibition (CellTiter-Glo), LoVo; assay type: cell-based, Human; details: Homo sapiens, Colorectal Cancer, 72 h treatment
Procedure: as §1, §2, §3, §4

786-O = experiment: Cancer cell growth inhibition (CellTiter-Glo), 786-O; assay type: cell-based, Human; details: Homo sapiens, 786-0, Kidney Cancer, 72 h treatment
Procedure: as §1, §2, §3, §4

NCI-H460 = experiment: Cancer cell growth inhibition (CellTiter-Glo), NCI-H460; assay type: cell-based, Human; details: Homo sapiens; Lung Cancer, NCI-H460, 72 h treatment
Procedure: as §1, §2, §3, §4

DU145 = experiment: Cancer cell growth inhibition (CellTiter-Glo), DU145; assay type: cell-based, Human; details: Homo sapiens, DU-145; Prostate Cancer, DU145, 72 h treatment
Procedure: as §1, §2, §3, §4

Colo205 = experiment: Cancer cell growth inhibition (CellTiter-Glo), Colo205; assay type: cell-based; details: Homo sapiens, COLO 205; Colorectal Cancer, Colo205, 72 h treatment
Procedure: as §1, §2, §3, §4

SK-MES-1 = experiment: Cancer cell growth inhibition (CellTiter-Glo), SK-MES-1; assay type: cell-based, Human; details: Homo sapiens; Lung Cancer, SK-MES-1, 72 h treatment
Procedure: as §1, §2, §3, §4

RPMI-8226 = experiment: Cancer cell growth inhibition (CellTiter-Glo), RPMI-8226; assay type: cell-based, Human; details: Homo sapiens; Orthotopic Multiple Myeloma, RPMI-8226, 72 h treatment
Procedure: as §1, §2, §3, §4

A375 = experiment: Cancer cell growth inhibition (CellTiter-Glo), A375; assay type: cell-based, Human; details: Homo sapiens, A-375; Melanoma, A375, 72 h treatment
Procedure: as §1, §2, §3, §4

BT474 = experiment: Cancer cell growth inhibition (CellTiter-Glo), BT474; assay type: cell-based; details: Homo sapiens, BT-474; Breast Cancer, BT474, 72 h treatment
Procedure: as §1, §2, §3, §4

MIAPaCa-2 = experiment: Cancer cell growth inhibition (CellTiter-Glo), MIAPaCa-2; assay type: cell-based; details: Homo sapiens, MIA PaCa-2; Pancreatic Cancer, MIAPaCa-2, 72 h treatment
Procedure: as §1, §2, §3, §4

143b = experiment: Cancer cell growth inhibition (CellTiter-Glo), 143b; assay type: cell-based; details: Homo sapiens, Osteosarcoma, 72 h treatment
Procedure: as §1, §2, §3, §4

OVCAR3 = experiment: Cancer cell growth inhibition (CellTiter-Glo), OVCAR3; assay type: cell-based, Human; details: Homo sapiens, OVCAR-3; Ovarian Cancer, OVCAR3, 72 h treatment
Procedure: as §1, §2, §3, §4

HT-1080 = experiment: Cancer cell growth inhibition (CellTiter-Glo), HT-1080; assay type: cell-based; details: Homo sapiens; Fibrosarcoma, HT-1080, 72 h treatment
Procedure: as §1, §2, §3, §4

MDA-MB-231 = experiment: Cancer cell growth inhibition (CellTiter-Glo), MDA-MB-231; assay type: cell-based; details: Homo sapiens; Breast Cancer, MDA-MB-231, 72 h treatment
Procedure: as §1, §2, §3, §4

LNCaP = experiment: Cancer cell growth inhibition (CellTiter-Glo), LNCaP; assay type: cell-based, Human; details: Homo sapiens, Prostate Cancer, 72 h treatment
Procedure: as §1, §2, §3, §4

Compound	IC50 (SW480)	IC50 (HCT-116)	IC50 (Bx-PC-3)	IC50 (PC-3)	IC50 (LoVo)	IC50 (786-O)	IC50 (NCI-H460)	IC50 (DU145)	IC50 (Colo205)	IC50 (SK-MES-1)	IC50 (RPMI-8226)	IC50 (A375)	IC50 (BT474)	IC50 (MIAPaCa-2)	IC50 (143b)	IC50 (OVCAR3)	IC50 (HT-1080)	IC50 (MDA-MB-231)	IC50 (LNCaP)
O=C(CCCCCNC(=O)c1[nH]c(-c2ccccc2)cc1-c1ccc(O)cc1)NO [Example 1, N-(6-(hydroxyamino)-6-oxohexyl)-3-(4-hydroxyphenyl)-5-phenyl-1H-pyrrole-2-carboxamide]	1.73 µM	0.95 µM	2.68 µM	17.9 µM	1.4 µM	3.28 µM	2.4 µM	0.81 µM	1.87 µM	2.88 µM	0.7 µM	2.05 µM	2.71 µM	2.75 µM	1.71 µM	3.3 µM	3 µM	4.33 µM	1.11 µM
O=C(CCCCCNC(=O)c1[nH]c(-c2ccc(O)cc2)cc1-c1ccccc1)NO [Example 2, N-(6-(hydroxyamino)-6-oxohexyl)-5-(4-hydroxyphenyl)-3-phenyl-1H-pyrrole-2-carboxamide]	2.12 µM	1.75 µM	4.27 µM	26.9 µM	2.69 µM	3.51 µM	9.41 µM	1.86 µM	1.82 µM	4.8 µM	4.47 µM	4.07 µM	3.49 µM	4.08 µM	5.38 µM	3.34 µM	3.24 µM	9.03 µM	1.77 µM
O=C(CCCCCNC(=O)c1[nH]c(-c2ccc(O)cc2)cc1-c1ccoc1)NO [Example 5, 3-(3-furyl)-N-(5-(hydroxycarbamoyl)pentyl)-5-(4-hydroxy-phenyl)-1H-pyrrole-2-carboxamide]	0.48 µM	0.45 µM	2.42 µM	25.8 µM	1.08 µM	3.14 µM	10.9 µM	0.72 µM	0.59 µM	3.62 µM	6.2 µM	3.64 µM	0.66 µM	1.59 µM	2.91 µM	1.05 µM	3.12 µM	8.02 µM	0.59 µM
O=C(CCCCCNC(=O)c1[nH]c(-c2ccc(O)cc2)cc1-c1ccsc1)NO [Example 6, N-(5-(hydroxycarbamoyl)pentyl)-5-(4-hydroxyphenyl)-3-(3-thienyl)-1H-pyrrole-2-carboxamide]	1.08 µM	0.78 µM	2.91 µM	26.8 µM	1.24 µM	2.7 µM	9.38 µM	1.05 µM	0.87 µM	3.7 µM	4.8 µM	3.2 µM	1.02 µM	2.49 µM	2.72 µM	1.74 µM	3.1 µM	7.89 µM	0.8 µM
